Reference: ChEMBL document CHEMBL1157360, “Characterization of an integron carrying blaIMP-1 and a new aminoglycoside resistance gene, aac(6')-31, and its dissemination among genetically unrelated clinical isolates in a Brazilian hospital” (2007)
Converted amounts (≈) assume the structure as drawn.

Tests used:
Assay type in all cases: functional
[1] = system: Acinetobacter baumannii; test: Antimicrobial activity against Acinetobacter baumannii 696 isolate harboring bla IMP-1 carrying integron In86 containing aminoglycoside resistance gene aac(6')-3
[2] = system: Acinetobacter baumannii; test: Antimicrobial activity against Acinetobacter baumannii 9043 isolate harboring bla IMP-1 carrying integron In86 containing aminoglycoside resistance gene aac(6')-3
[3] = system: Acinetobacter baumannii; test: Antimicrobial activity against Acinetobacter baumannii 501 isolate harboring bla IMP-1 carrying integron In86 containing aminoglycoside resistance gene aac(6')-3
[4] = system: Acinetobacter baumannii; test: Antimicrobial activity against Acinetobacter baumannii 694 isolate harboring bla IMP-1 carrying integron In86 containing aminoglycoside resistance gene aac(6')-3
[5] = system: Pseudomonas putida; test: Antimicrobial activity against Pseudomonas putida 12346 isolate harboring bla IMP-1 carrying integron In86 containing aminoglycoside resistance gene aac(6')-3
[6] = system: Acinetobacter baumannii; test: Antimicrobial activity against Acinetobacter baumannii 695 isolate harboring bla IMP-1 carrying integron In86 containing aminoglycoside resistance gene aac(6')-3
[7] = system: Acinetobacter sp.; test: Antimicrobial activity against Acinetobacter sp. 5227 isolate harboring bla IMP-1 carrying integron In86 containing aminoglycoside resistance gene aac(6')-3
[8] = system: Acinetobacter sp.; test: Antimicrobial activity against Acinetobacter sp. 5248 isolate harboring bla IMP-1 carrying integron In86 containing aminoglycoside resistance gene aac(6')-3
[9] = system: Escherichia coli; test: Antimicrobial activity against Escherichia coli DH5alpha
[10] = system: Escherichia coli; test: Antimicrobial activity against Escherichia coli DH5alpha harboring recombinant pIMPAR31

SMILES	MIC [1]	MIC [2]	MIC [3]	MIC [4]	MIC [5]	MIC [6]	MIC [7]	MIC [8]	MIC [9]	MIC [10]
COc1c(N2CCNC(C)C2)c(F)cc2c(=O)c(C(=O)O)cn(C3CC3)c12 (stereo not drawn) [GATIFLOXACIN]	0.06 µg/mL (≈ 0.16 µM)	> 4 µg/mL	0.12 µg/mL (≈ 0.32 µM)	0.25 µg/mL (≈ 0.666 µM)	> 4 µg/mL	4 µg/mL (≈ 10.7 µM)	1 µg/mL (≈ 2.66 µM)	4 µg/mL (≈ 10.7 µM)	–	–
CO/N=C(\C(=O)N[C@@H]1C(=O)N2C(C(=O)[O-])=C(C[N+]3(C)CCCC3)CS[C@H]12)c1csc(N)n1	> 16 µg/mL	> 16 µg/mL	> 16 µg/mL	> 16 µg/mL	> 16 µg/mL	> 16 µg/mL	> 16 µg/mL	> 16 µg/mL	–	–
CN[C@@H]1[C@@H](O)[C@@H](O[C@@H]2[C@@H](O)[C@H](O[C@H]3OC(CN)=CC[C@H]3N)[C@@H](N)C[C@H]2N)OC[C@]1(C)O [SISOMICIN]	–	–	–	–	–	–	–	–	≤ 0.25 µg/mL	8 µg/mL
C[C@H]1COc2c(N3CCN(C)CC3)c(F)cc3c(=O)c(C(=O)O)cn1c23.C[C@H]1COc2c(N3CCN(C)CC3)c(F)cc3c(=O)c(C(=O)O)cn1c23.O [LEVOFLOXACIN]	0.25 µg/mL	> 4 µg/mL	0.25 µg/mL	0.25 µg/mL	> 4 µg/mL	> 4 µg/mL	2 µg/mL	4 µg/mL	–	–
CCN[C@@H]1C[C@H](N)[C@@H](O[C@H]2OC(CN)=CC[C@H]2N)[C@H](O)[C@H]1O[C@H]1OC[C@](C)(O)[C@H](NC)[C@H]1O [NETILMICIN]	32 µg/mL (≈ 67.3 µM)	> 32 µg/mL	> 32 µg/mL	32 µg/mL (≈ 67.3 µM)	> 32 µg/mL	8 µg/mL (≈ 16.8 µM)	> 32 µg/mL	16 µg/mL (≈ 33.6 µM)	0.5 µg/mL (≈ 1.05 µM)	4 µg/mL
CCN1CCN(C(=O)N[C@@H](C(=O)N[C@@H]2C(=O)N3[C@@H]2SC(C)(C)[C@@H]3C(=O)O)c2ccccc2)C(=O)C1=O [PIPERACILLIN]	> 128 µg/mL	> 128 µg/mL	32 µg/mL (≈ 61.8 µM)	> 128 µg/mL	64 µg/mL (≈ 124 µM)	128 µg/mL (≈ 247 µM)	> 128 µg/mL	> 128 µg/mL	–	–
CN[C@@H]1[C@@H](O)[C@@H](O[C@@H]2[C@@H](O)[C@H](O[C@H]3O[C@H](CN)[C@@H](O)[C@H](O)[C@H]3O)[C@@H](N)C[C@H]2NC(=O)[C@@H](O)CN)OC[C@]1(C)O [ISEPAMICIN]	–	–	–	–	–	–	–	–	0.12 µg/mL (≈ 0.211 µM)	4 µg/mL
C[C@@H](O)[C@H]1C(=O)N2C(C(=O)O)=C(SCCNC=N)C[C@H]12 [IMIPENEM ANHYDROUS]	> 8 µg/mL	> 8 µg/mL	> 8 µg/mL	> 8 µg/mL	> 8 µg/mL	> 8 µg/mL	> 8 µg/mL	> 8 µg/mL	–	–
CC(C)(O/N=C(\C(=O)N[C@@H]1C(=O)N2C(C(=O)[O-])=C(C[n+]3ccccc3)CS[C@H]12)c1csc(N)n1)C(=O)O [CEFTAZIDIME]	> 16 µg/mL	> 16 µg/mL	> 16 µg/mL	> 16 µg/mL	> 16 µg/mL	> 16 µg/mL	> 16 µg/mL	> 16 µg/mL	–	–
NCC[C@H](O)C(=O)N[C@@H]1C[C@H](N)[C@@H](O[C@H]2O[C@H](CN)[C@@H](O)[C@H](O)[C@H]2O)[C@H](O)[C@H]1O[C@H]1O[C@H](CO)[C@@H](O)[C@H](N)[C@H]1O [AMIKACIN]	> 32 µg/mL	> 32 µg/mL	32 µg/mL (≈ 54.6 µM)	> 32 µg/mL	> 32 µg/mL	32 µg/mL (≈ 54.6 µM)	> 32 µg/mL	32 µg/mL (≈ 54.6 µM)	0.5 µg/mL (≈ 0.854 µM)	8 µg/mL
C[C@@H](O)[C@H]1C(=O)N2C(C(=O)O)=C(S[C@@H]3CN[C@H](C(=O)N(C)C)C3)[C@H](C)[C@H]12 [MEROPENEM]	> 8 µg/mL	> 8 µg/mL	> 8 µg/mL	> 8 µg/mL	> 8 µg/mL	> 8 µg/mL	> 8 µg/mL	> 8 µg/mL	–	–
NC[C@H]1O[C@H](O[C@H]2[C@H](O)[C@@H](O[C@H]3O[C@H](CO)[C@@H](O)[C@H](N)[C@H]3O)[C@H](N)C[C@@H]2N)[C@H](O)[C@@H](O)[C@@H]1O [KANAMYCIN]	–	–	–	–	–	–	–	–	0.5 µg/mL (≈ 1.03 µM)	–
NC[C@H]1O[C@H](O[C@H]2[C@H](O)[C@@H](O[C@H]3O[C@H](CO)[C@@H](O)[C@H](N)[C@H]3O)[C@H](N)C[C@@H]2N)[C@H](N)C[C@@H]1O [TOBRAMYCIN]	16 µg/mL (≈ 34.2 µM)	16 µg/mL (≈ 34.2 µM)	> 16 µg/mL	16 µg/mL (≈ 34.2 µM)	> 16 µg/mL	> 16 µg/mL	16 µg/mL (≈ 34.2 µM)	8 µg/mL (≈ 17.1 µM)	0.25 µg/mL (≈ 0.535 µM)	4 µg/mL
CC1(C)S[C@@H]2[C@H](NC(=O)[C@H](C(=O)O)c3ccsc3)C(=O)N2[C@H]1C(=O)O [TICARCILLIN]	> 128 µg/mL	> 128 µg/mL	> 128 µg/mL	> 128 µg/mL	> 128 µg/mL	> 128 µg/mL	> 128 µg/mL	> 128 µg/mL	–	–
CC1(C)S[C@@H]2[C@H](NC(=O)[C@H](N)c3ccccc3)C(=O)N2[C@H]1C(=O)O [AMPICILLIN]	> 16 µg/mL	> 16 µg/mL	> 16 µg/mL	> 16 µg/mL	> 16 µg/mL	> 16 µg/mL	> 16 µg/mL	> 16 µg/mL	–	–
O=C(O)c1cn(C2CC2)c2cc(N3CCNCC3)c(F)cc2c1=O [CIPROFLOXACIN]	0.5 µg/mL (≈ 1.51 µM)	> 2 µg/mL	0.12 µg/mL (≈ 0.362 µM)	1 µg/mL (≈ 3.02 µM)	> 2 µg/mL	> 4 µg/mL	2 µg/mL (≈ 6.04 µM)	> 4 µg/mL	–	–
C[C@H]1[C@H](NC(=O)/C(=N\OC(C)(C)C(=O)O)c2csc(N)n2)C(=O)N1S(=O)(=O)O [AZTREONAM]	> 16 µg/mL	> 16 µg/mL	> 16 µg/mL	> 16 µg/mL	> 16 µg/mL	> 16 µg/mL	> 16 µg/mL	> 16 µg/mL	–	–
